Reference: patent US11253526B2, “Nanostructured formulations for the delivery of silibinin and other active ingredients for treating ocular diseases” (DISTRETTO TECNOLOGICO SICILIA MICRO E NANO SISTEMI …, priority 2014, dated 2022)
“And” between values parts separate entries of the source, which are not always exact repeats. Identical values can stand only once.

Assays:
[1] = system: ARPE-19 retinal cells; assay: Biocompatibility / toxicity on ARPE-19 retinal cells; assay type: cell-based
Protocol: (§1) Then, the effects of the conjugated and empty system were tested using the compound FeSO4 as oxidative insult, with changes in the cellular redox status. Over 24 hours of incubation, the cells are pre-treated for 20 h and then exposed to insult with 50 μM FeSO4 for three hours [“Pretreatment” 20 h drug+3 h insult]. The viability test conducted to evaluate the toxicity and the ability of protection from damage of the carrier in question is to assess the release of LDH in the culture medium. […] In subsequent experiments, the effects of post-treatment with calixarene based compounds were tested. Therefore, cells were treated with 50 μM FeSO4 for 5 hours and incubated for 20 hours with the various compounds.
(§2) The colloidal solutions of calixarene 1, calixarene loaded with active ingredient and active ingredient alone were tested for cytotoxicity: SIRC corneal cells (FIG. 11), J774 macrophages (FIG. 12) and ARPE retinal cells.

[2] = Degradation of curcumin in PBS and serum-free medium; assay type: physicochemical
[3] = system: J774 macrophages; assay: Cytotoxicity on J774 macrophages; assay type: cell-based
Protocol: as §2

[4] = system: J774 cells; assay: Viability / anti-inflammatory activity in J774 cells stimulated with LPS; assay type: cell-based
Protocol: (§3) In particular, J774 cells were stimulated with lipopolysaccharide (LPS) at a concentration of 10 μg/mL for 24 hours, stimulation with LPS induces the activation of inflammatory processes such as NFκB nuclear translocation and cytokine production, if not also release of nitrites and nitrosative stress. The cell viability was then evaluated following stimulation with LPS (10 μg/mL for 24 hours) and 2-hour pretreatment of the delivery systems being studied at the different concentrations. […] The anti-inflammatory activity of the delivery systems was then evaluated through the Western Blot analysis. […] The NFκB activation involves the production of proteins and inflammatory mediators such as cyclooxygenase 2 (COX-2) and inducible nitric oxide synthase (iNOS) and consequent increase in the production of nitrites.

[5] = Average hydrodynamic diameter and polydispersity index by DLS / photo-correlation spectroscopy; assay type: physicochemical; conditions: DLS in PBS, pH 7.4; calixarene nanoaggregates
Protocol: The average diameter and the polydispersity index (PDI) of the SLN-A systems prepared were determined by photo-correlation spectroscopy (PCS) using a Zetasizer Nano ZSP (Malvern Instrument).
The average diameter and the polydispersity index (PDI) of the NLC-B systems coated with INU-EDA and chitosan prepared were determined by photo-correlation spectroscopy (PCS) using a Zetasizer Nano ZSP (Malvern Instrument).
(§4) The size distribution of micelles was determined through dynamic light scattering measurements using the Malvern Zetasizer Nano ZS. […] The aqueous solutions of micelles (2 mg/mL) were analyzed after filtration through cellulose membrane filters with 5 μm cut off. The average hydrodynamic diameter and the polydispersity index (PDI) were obtained using cumulative analyses of the correlation function. The zeta potential (mV) was calculated by the electrophoretic mobility and using the Smoluchowsky relation, assuming that K·a>>1 (where K and a are the Debye-Hückel parameter and the particle radius, respectively).
(§5) The average diameter, polydispersity index (PDI) and zeta potential of calixarene nanoparticles loaded and not with silibinin were measured using a Zetasizer Nano ZS-90 (Malvern Instrument), the reading was made at an angle of 90° with respect to the incident ray and analyzed in triplicate.

[6] = system: SIRC corneal cells; assay: Cytotoxicity on SIRC corneal cells; assay type: cell-based; conditions: SIRC corneal (epithelial) cells
Protocol: as §2

[7] = system: cathepsin D; assay: Western blot of cathepsin D after FeSO4 insult and post-treatment; assay type: cell-based
Excerpt: Cathepsin D is an intracellular aspartyl protease, synthesized in the endoplasmic reticulum as pre-pro-enzyme that is processed up to generate active fragments. According to the cellular environment in which it resides, it can induce or inhibit apoptosis through different mechanisms. The 48 kDa fragment is an active intermediate form from which two additional active fragments are generated; therefore, its reduction is associated with the activation of the proteolytic process, vice versa its increase is indicative of an inhibition of apoptosis. In the presence of oxidative stress, the activation of cathepsin D may activate caspase 8 which in turn activates caspase 3, leading to cell death (Regulatory role of cathepsin D in apoptosis, A. Minarowska et al., (2007) Folia Histochemica et Cytobiologica) (Caspase-8-mediated apoptosis induced by oxidative stress is independent of the intrinsic pathway and dependent on cathepsins H. K. Baumgartner et al., (2007) Am J Physiol Gastrointest Liver Physiol.).

[8] = system: ARPE-19 cells; assay: LDH release, 50 μM FeSO4 for 5 hours then 20 h post-treatment; assay type: cell-based; conditions: then 20 hours with compound
Protocol: as §1

[9] = system: ARPE-19 cells; assay: LDH release, 20 h pretreatment then 50 μM FeSO4 insult; assay type: cell-based
Protocol: as §1

[10] = system: inducible nitric oxide synthase (iNOS); assay: Western blot, iNOS level in LPS-stimulated J774 cells; assay type: cell-based; conditions: LPS 10 μg/mL for 24 hours, pre-treatment
Protocol: as §3

[11] = Zeta potential measurement; assay type: physicochemical; conditions: in PBS, pH 7.4; calixarene nanoaggregates
Protocol: The zeta potential was measured according to the principles of the laser doppler velocimetry and of the light scattering analysis (M3-PALS technique) using a Zetasizer Nano ZSP (Malvern) with a He—Ne laser, power=4.0 mW, wavelength=633 nm.
as §4, §5

[12] = system: Uveitis induced in Lewis rats; assay: Uveitis model induced by LPS endotoxin, topical administration; assay type: in vivo; conditions: 16 and 72 hours after LPS injection
Protocol: With the aim of verifying the effectiveness of the calixarene system loaded with the active ingredient to the eye site of interest, an experiment was conducted in vivo with an Uveitis model. Uveitis was induced in 160-180 g Lewis rats by single subcutaneous injection in the hind paw of 200 ìg of the LPS endotoxin from Salmonella Minnesota diluted in 0.2 mL PBS, pH 7.4. The control group received only 0.2 mL of PBS in the hind paw. […] The eyes were enucleated for histological and immunohistochemical analysis. The aqueous humor was also taken for protein dosing.

[13] = system: cyclooxygenase 2 (COX-2); assay: Western blot, COX-2 level in LPS-stimulated J774 cells; assay type: cell-based; conditions: LPS 10 μg/mL for 24 hours, pre-treatment
Protocol: as §3

[14] = cited from earlier work
[15] = system: PARP-1 protein; assay: Western blotting of PARP-1 after H2O2 and post-treatment; assay type: cell-based; conditions: samples treated with H2O2, post-treatment
Protocol: Lysates of retinal cells exposed to post-treatment with the INUC8PEG system, empty or conjugated with silibinin, were analyzed by western blotting for the expression of the PARP-1 protein, a poly (ADP-ribose) polymerase of 116 kDa involved in DNA repair in response to environmental stress (Calcium Overload Is A Critical Step In Programmed Necrosis Of Arpe-19 Cells Induced By High-Concentration H2O2 Guang-Yu Li et al., (2010) Biomedical And Environmental Sciences). In vivo and in vitro, PARP-1 is processed by Caspase 3 and Caspase 7 with the formation of a 24 kDa DNA-binding domain and an 89 kDa catalytic domain that participates in the apoptosis (Importance of Poly (ADP-ribose) Polymerase and Its Cleavage in Apoptosis F. J Oliver et al., (1998) J. Biol. Chem.).

[16] = 20 h incubation, cells not exposed to FeSO4
[17] = pre-treated 20 h, then FeSO4 (50 μM)

| Compound | expression levels of cathepsin D (48 kDa band) [7] | protection against insult (LDH release) [8] | release of LDH [9, 16] | release of LDH [9, 17] | levels of iNOS [10] | ocular inflammation / histologic damage [12] | protein levels in the aqueous humor [12] | levels of COX-2 [13] | other results |
| --- | --- | --- | --- | --- | --- | --- | --- | --- | --- |
| CCCCCCCCCCCCOc1c2cc(C[N+](C)(C)CCO)cc1Cc1cc(C[N+](C)(C)CCO)cc(c1OCCCCCCCCCCCC)Cc1cc(C[N+](C)(C)CCO)cc(c1OCCCCCCCCCCCC)Cc1cc(C[N+](C)(C)CCO)cc(c1OCCCCCCCCCCCC)C2 [compound 1] | increases the expression levels of cathepsin D | individually able to protect from the redox status alteration | do not significantly change the release of LDH | an effect not observed | reduces significantly and in a dose-dependent manner | the degree of inflammation was not reduced | did not result in a reduction in the protein levels | reduces significantly and in a dose-dependent manner | biocompatibility ([1]; ARPE-19 / ARPE retinal cells): good biocompatibility; toxicity ([1]; concentrations 0.01-1 μM, incubated for 20 hours): caused no toxicity; protective effect towards curcumin ([2]; PBS as a solvent): protects curcumin; biocompatibility [3]: good biocompatibility; cell viability following stimulation with LPS ([4]; LPS 10 μg/mL for 24 hours, 2-hour pretreatment): able to restore the cell viability; anti-inflammatory activity, rank order ([4]; macrophages subjected to inflammatory stress with LPS): calixarene loaded with curcumin>>calixarene>>curcumin alone; PDI [5]: 0.29; Z-average [5]: 44.3 nm; biocompatibility [6]: good biocompatibility; Potential ζ [11]: 24 mV |
| COc1cc(/C=C/C(=O)CC(=O)/C=C/c2ccc(O)c(OC)c2)ccc1O [curcumin, diferuloylmethane] |  |  |  |  | reduces significantly and in a dose-dependent manner | significantly decreased the histologic damage | most effectively determined the reduction of proteins | reduces significantly and in a dose-dependent manner | degradation ([2]; in 30 min, 0.1 M PBS and serum-free medium): 80-90% and 90% |
| Silibinin [reference compound] | increases the expression levels of cathepsin D | individually able to protect from the redox status alteration | reduces the release of LDH | an effect not observed |  | decreased but not significant ocular inflammation | a trend but not significant |  | solubility in water [14]: 430 µg/mL; inhibition of apoptosis induced by oxidative damage [15]: reduces the apoptotic process, however with less efficiency than the conjugated carrier |
